Like-named read-outs stand apart in the source and are kept apart here.
Key:
Test in all cases: biochemical
Set-up in all cases: KINOMEscan scanMAX competition binding, DNA-tagged kinases, qPCR read-out, percent control at 300 nM
[1] = target: CLK2 (Homo sapiens, UniProt P49760)
[2] = target: KIT(D816H) (Homo sapiens, UniProt P10721, D816H)
[3] = target: ACVR2A (Homo sapiens, UniProt P27037)
[4] = target: PRKCQ (Homo sapiens, UniProt Q04759)
[5] = target: T1, EPHB2 (Homo sapiens, UniProt P29323)
T1 sequence (P29323 1-1055): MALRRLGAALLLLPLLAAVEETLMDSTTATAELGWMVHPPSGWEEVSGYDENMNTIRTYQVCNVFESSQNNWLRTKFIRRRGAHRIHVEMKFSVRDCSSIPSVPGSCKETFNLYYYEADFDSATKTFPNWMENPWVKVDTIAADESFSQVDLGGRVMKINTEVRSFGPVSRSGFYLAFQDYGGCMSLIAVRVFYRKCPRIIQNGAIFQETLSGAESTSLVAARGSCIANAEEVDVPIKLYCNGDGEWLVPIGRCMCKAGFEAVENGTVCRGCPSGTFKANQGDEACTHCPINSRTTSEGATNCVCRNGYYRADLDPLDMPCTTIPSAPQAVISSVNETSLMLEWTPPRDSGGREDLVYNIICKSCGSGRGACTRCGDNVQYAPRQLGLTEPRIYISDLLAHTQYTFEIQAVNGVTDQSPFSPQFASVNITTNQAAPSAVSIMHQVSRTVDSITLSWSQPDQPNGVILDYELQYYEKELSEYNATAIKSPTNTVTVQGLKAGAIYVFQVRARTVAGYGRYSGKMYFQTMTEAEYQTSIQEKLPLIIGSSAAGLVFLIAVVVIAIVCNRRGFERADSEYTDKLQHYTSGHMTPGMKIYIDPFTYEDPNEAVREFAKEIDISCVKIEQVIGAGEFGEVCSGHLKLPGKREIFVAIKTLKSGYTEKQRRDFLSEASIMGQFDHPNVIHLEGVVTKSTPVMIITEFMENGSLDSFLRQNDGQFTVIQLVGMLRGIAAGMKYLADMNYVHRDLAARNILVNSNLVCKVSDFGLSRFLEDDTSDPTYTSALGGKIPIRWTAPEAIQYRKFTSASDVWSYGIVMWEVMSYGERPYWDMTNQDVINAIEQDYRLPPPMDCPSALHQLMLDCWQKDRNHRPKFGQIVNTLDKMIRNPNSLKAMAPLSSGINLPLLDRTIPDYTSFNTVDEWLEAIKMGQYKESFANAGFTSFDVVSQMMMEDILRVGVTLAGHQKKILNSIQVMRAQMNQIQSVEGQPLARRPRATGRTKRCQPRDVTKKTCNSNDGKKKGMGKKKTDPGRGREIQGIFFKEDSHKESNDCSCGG

[6] = target: EPHA4 (Homo sapiens, UniProt P54764)
Sequence of EPHA4 (P54764 whole entry): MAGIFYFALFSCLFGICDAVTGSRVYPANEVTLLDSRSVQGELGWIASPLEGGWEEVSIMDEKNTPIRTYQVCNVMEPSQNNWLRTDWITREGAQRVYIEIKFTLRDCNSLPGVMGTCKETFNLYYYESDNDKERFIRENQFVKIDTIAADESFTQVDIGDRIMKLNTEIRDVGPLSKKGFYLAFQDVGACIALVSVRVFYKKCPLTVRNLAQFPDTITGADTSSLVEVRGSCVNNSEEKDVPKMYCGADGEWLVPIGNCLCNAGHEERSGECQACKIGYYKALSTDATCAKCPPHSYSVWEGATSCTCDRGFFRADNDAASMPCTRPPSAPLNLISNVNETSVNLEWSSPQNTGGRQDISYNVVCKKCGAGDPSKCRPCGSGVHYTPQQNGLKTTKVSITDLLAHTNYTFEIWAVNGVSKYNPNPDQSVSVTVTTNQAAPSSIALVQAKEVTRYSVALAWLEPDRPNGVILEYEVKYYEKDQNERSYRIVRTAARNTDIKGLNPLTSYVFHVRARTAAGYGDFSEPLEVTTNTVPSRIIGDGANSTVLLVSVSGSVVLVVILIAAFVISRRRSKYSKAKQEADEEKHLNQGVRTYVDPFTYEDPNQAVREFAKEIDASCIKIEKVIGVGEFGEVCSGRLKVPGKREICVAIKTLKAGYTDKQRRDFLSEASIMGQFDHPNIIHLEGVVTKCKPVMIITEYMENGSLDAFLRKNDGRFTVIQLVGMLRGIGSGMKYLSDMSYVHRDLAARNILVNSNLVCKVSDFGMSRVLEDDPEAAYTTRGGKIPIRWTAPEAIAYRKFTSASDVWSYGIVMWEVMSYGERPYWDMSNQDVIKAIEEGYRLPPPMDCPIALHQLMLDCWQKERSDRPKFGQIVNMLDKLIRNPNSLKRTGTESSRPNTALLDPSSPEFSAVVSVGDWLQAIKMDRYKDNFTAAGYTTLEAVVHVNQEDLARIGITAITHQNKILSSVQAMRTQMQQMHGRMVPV

[7] = target: T2, FLT3(R834Q) (Homo sapiens, UniProt P36888, R834Q)
T2 sequence (P36888 1-993 R834Q): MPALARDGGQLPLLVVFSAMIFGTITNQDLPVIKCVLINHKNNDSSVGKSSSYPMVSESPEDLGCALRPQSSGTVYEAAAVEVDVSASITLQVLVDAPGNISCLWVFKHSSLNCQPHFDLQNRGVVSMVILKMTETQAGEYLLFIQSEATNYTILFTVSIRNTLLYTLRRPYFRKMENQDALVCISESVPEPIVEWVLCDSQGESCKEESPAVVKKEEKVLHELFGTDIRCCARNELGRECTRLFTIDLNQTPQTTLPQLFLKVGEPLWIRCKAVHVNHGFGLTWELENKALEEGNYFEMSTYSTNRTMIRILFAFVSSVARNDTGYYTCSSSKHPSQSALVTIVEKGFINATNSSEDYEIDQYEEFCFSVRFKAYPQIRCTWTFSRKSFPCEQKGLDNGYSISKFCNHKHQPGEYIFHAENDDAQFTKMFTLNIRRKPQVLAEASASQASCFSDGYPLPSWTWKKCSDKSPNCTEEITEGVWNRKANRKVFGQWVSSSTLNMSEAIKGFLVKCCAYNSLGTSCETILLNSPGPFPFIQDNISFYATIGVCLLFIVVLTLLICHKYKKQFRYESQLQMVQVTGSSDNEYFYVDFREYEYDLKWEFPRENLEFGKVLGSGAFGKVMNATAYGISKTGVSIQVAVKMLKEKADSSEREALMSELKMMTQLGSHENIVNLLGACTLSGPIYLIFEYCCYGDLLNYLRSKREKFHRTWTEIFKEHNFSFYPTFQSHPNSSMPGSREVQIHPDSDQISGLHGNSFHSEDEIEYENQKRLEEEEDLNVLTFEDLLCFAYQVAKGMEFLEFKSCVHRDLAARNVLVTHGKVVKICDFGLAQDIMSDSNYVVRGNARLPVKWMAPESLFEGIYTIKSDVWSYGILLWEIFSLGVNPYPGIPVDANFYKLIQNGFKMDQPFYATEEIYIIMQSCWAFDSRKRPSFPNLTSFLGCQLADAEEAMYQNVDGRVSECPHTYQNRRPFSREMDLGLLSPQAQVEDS

[8] = read-out: Percent control / Acalabrutinib
[9] = read-out: Percent control / Ibrutinib
[10] = read-out: Percent control / Tirabrutinib
[11] = read-out: Percent control / Zanubrutinib

Sequence of CLK2 (P49760 whole entry): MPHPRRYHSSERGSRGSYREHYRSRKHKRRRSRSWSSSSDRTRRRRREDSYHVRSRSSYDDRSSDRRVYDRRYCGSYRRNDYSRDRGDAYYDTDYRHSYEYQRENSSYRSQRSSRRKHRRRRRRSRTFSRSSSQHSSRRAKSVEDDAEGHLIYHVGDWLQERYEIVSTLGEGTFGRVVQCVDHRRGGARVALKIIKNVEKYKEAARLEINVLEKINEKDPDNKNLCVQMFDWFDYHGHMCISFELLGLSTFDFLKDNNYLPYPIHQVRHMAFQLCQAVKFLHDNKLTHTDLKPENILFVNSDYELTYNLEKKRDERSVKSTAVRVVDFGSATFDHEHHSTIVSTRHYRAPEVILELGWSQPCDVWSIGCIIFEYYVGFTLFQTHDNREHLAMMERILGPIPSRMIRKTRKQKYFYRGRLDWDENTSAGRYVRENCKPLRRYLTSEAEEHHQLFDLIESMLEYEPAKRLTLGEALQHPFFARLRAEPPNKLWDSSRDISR
Sequence of ACVR2A (P27037 whole entry): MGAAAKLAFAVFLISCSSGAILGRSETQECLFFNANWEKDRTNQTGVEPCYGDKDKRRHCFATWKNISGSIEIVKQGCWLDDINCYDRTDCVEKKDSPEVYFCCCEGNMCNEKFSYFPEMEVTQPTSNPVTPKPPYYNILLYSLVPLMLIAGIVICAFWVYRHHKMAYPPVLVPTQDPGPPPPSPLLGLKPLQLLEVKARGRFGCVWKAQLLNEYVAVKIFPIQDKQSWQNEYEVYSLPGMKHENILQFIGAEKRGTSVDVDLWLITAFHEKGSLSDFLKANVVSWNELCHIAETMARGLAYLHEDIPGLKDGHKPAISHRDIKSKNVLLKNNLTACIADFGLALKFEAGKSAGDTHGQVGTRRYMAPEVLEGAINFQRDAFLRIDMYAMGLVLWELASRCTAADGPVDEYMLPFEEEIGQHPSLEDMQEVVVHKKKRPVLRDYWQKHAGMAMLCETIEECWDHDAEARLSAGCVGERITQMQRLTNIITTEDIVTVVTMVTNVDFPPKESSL
Sequence of PRKCQ (Q04759 whole entry): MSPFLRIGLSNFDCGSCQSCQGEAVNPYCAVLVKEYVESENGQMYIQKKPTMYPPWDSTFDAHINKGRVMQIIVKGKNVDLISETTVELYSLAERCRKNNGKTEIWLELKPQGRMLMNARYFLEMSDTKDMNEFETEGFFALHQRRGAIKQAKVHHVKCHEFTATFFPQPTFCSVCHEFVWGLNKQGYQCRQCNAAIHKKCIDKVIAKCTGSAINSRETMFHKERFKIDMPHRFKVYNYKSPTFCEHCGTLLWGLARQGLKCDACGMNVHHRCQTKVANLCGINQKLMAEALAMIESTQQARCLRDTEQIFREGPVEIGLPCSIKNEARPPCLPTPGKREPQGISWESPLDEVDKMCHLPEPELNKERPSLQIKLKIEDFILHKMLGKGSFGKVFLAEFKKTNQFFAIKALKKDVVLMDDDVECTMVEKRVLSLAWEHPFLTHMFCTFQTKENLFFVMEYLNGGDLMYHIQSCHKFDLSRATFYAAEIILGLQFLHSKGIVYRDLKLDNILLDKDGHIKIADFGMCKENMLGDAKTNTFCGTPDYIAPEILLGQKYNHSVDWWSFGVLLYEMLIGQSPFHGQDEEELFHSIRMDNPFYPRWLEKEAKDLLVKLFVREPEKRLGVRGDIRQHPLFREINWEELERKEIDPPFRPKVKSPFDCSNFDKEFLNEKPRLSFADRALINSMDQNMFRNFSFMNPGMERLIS
Sequence of KIT(D816H) (P10721 whole entry D816H): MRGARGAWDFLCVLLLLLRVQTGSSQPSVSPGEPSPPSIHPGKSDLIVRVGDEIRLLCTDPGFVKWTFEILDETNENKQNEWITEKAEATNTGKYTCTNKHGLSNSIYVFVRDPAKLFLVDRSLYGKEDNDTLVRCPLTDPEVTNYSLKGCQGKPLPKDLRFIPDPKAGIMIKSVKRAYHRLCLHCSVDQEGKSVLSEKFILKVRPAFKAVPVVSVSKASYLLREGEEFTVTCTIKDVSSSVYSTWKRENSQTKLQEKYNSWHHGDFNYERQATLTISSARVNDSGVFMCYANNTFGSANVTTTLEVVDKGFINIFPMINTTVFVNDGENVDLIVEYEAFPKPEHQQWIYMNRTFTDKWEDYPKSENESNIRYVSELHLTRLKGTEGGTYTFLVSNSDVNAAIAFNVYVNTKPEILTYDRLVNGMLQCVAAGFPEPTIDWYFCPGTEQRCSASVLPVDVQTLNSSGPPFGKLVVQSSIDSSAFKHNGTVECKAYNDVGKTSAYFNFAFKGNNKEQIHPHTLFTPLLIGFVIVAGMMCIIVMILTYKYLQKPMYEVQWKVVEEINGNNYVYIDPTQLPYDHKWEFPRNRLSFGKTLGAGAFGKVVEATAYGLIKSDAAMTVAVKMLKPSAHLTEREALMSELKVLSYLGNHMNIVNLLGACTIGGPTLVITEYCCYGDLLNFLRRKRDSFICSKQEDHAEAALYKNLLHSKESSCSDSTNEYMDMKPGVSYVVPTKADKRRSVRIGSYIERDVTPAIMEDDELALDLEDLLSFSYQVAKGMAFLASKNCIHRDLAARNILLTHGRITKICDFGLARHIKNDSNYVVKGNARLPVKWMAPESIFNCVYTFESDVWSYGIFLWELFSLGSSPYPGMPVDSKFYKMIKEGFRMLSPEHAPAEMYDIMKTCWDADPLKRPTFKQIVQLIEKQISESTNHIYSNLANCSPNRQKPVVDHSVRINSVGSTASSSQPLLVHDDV

CC#CC(=O)N1CCC[C@H]1c1nc(-c2ccc(C(=O)Nc3ccccn3)cc2)c2c(N)nccn12 [Acalabrutinib]
remaining binding at 0.3 µM [1, 8]: 99%
remaining binding at 0.3 µM [2, 8]: 82%
remaining binding at 0.3 µM [3, 8]: 80%
remaining binding at 0.3 µM [4, 8]: 84%
remaining binding at 0.3 µM [5, 8]: 89%
remaining binding at 0.3 µM [6, 8]: 96%

C=CC(=O)N1CCC[C@@H](n2nc(-c3ccc(Oc4ccccc4)cc3)c3c(N)ncnc32)C1 [Ibrutinib]
remaining binding at 0.3 µM [3, 9]: 86%
remaining binding at 0.3 µM [7, 9]: 55%
remaining binding at 0.3 µM [6, 9]: 82%

CC#CC(=O)N1CC[C@@H](n2c(=O)n(-c3ccc(Oc4ccccc4)cc3)c3c(N)ncnc32)C1 [Tirabrutinib]
remaining binding at 0.3 µM [1, 10]: 94%
remaining binding at 0.3 µM [2, 10]: 84%
remaining binding at 0.3 µM [4, 10]: 93%
remaining binding at 0.3 µM [7, 10]: 81%
remaining binding at 0.3 µM [5, 10]: 87%
remaining binding at 0.3 µM [6, 10]: 94%

C=CC(=O)N1CCC([C@@H]2CCNc3c(C(N)=O)c(-c4ccc(Oc5ccccc5)cc4)nn32)CC1 [Zanubrutinib]
remaining binding at 0.3 µM [1, 11]: 87%
remaining binding at 0.3 µM [2, 11]: 96%
remaining binding at 0.3 µM [3, 11]: 100%
remaining binding at 0.3 µM [4, 11]: 87%
remaining binding at 0.3 µM [7, 11]: 93%
remaining binding at 0.3 µM [5, 11]: 100%
